Measurements taken from the supplement of paper PMC11061612.

Columns and labels:
Assay in all cases: Bliss excess, mean over the matrix (fraction); higher = more synergy
[1] = tested on: SW1463 (Colorectal Carcinoma)
How it was run: (§1)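 After 24 hours at 37°C and 5% CO2 in 1536-well plates, cells in DMEM/F12 or RPMI plus 10% FBS received two-drug dose matrices for 72 hours. Viability came from CellTiter-Glo 2.0 luminescence and was scaled as inhibition, anchored at 0 by vehicle wells and at 1 by blank wells. Combination Emax is taken as the second-highest inhibition in the matrix, and Bliss excess as the observed combination effect less EA + EB − EA·EB, with EA and EB the single-agent effects.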

[2] = tested on: RPMI-8402 (T-Lymphoblastic Leukemia)
How it was run: as §1

[3] = tested on: Daudi (Burkitt's Lymphoma)
How it was run: as §1

[4] = tested on: BC-1 (B-Cell Non-Hodgkin's Lymphoma)
How it was run: as §1

[5] = tested on: COR-L105 (Lung Adenocarcinoma)
How it was run: as §1

[6] = tested on: NCI-H1435 (Non-Small Cell Lung Carcinoma)
How it was run: as §1

GCIY (Gastric Carcinoma) = tested on: GCIY (Gastric Carcinoma)
How it was run: as §1

HT-144 (Melanoma) = tested on: HT-144 (Melanoma)
How it was run: as §1

[7] = tested on: NCI-H2023 (Non-Small Cell Lung Carcinoma)
How it was run: as §1

[8] = tested on: GRANTA-519 (B-Cell Non-Hodgkin's Lymphoma)
How it was run: as §1

[9] = tested on: NCI-H2009 (Lung Adenocarcinoma)
How it was run: as §1

[10] = tested on: MRK-nu-1 (Breast Carcinoma)
How it was run: as §1

[11] = tested on: L-363 (Plasma Cell Myeloma)
How it was run: as §1

A375 (Melanoma) = tested on: A375 (Melanoma)
How it was run: as §1

[12] = tested on: C2BBe1 (Colorectal Carcinoma)
How it was run: as §1

[13] = tested on: SNU-1 (Gastric Carcinoma)
How it was run: as §1

[14] = tested on: KNS-62 (Squamous Cell Lung Carcinoma)
How it was run: as §1

[15] = tested on: NCI-H1944 (Lung Adenocarcinoma)
How it was run: as §1

[16] = tested on: NCI-H835 (Other Solid Carcinomas)
How it was run: as §1

[17] = tested on: HT-3 (Cervical Carcinoma)
How it was run: as §1

| Compound | Bliss excess [1] | Bliss excess [2] | Bliss excess [3] | Bliss excess [4] | Bliss excess [5] | Bliss excess [6] | Bliss excess (GCIY (Gastric Carcinoma)) | Bliss excess (HT-144 (Melanoma)) | Bliss excess [7] | Bliss excess [8] | Bliss excess [9] | Bliss excess [10] | Bliss excess [11] | Bliss excess (A375 (Melanoma)) | Bliss excess [12] | Bliss excess [13] | Bliss excess [14] | Bliss excess [15] | Bliss excess [16] | Bliss excess [17] |
| --- | --- | --- | --- | --- | --- | --- | --- | --- | --- | --- | --- | --- | --- | --- | --- | --- | --- | --- | --- | --- |
| CN(C)CCCOc1ccc(-c2ccc3ncc4c(c3c2)n(C2CCOCC2)c(=O)n4C)cn1 [AZD0156] + O=C(c1cc(Cc2n[nH]c(=O)c3ccccc23)ccc1F)N1CCN(C(=O)C2CC2)CC1 [Olaparib] (first compound max 3 µM, partner max 3 µM) | -0.035 | 0.244 | 0.0672 | 0.0648 | 0.0527 | -0.0277 | 0.0703 | 0.0767 | 0.0234 | 0.0079 | 0.16 | -0.0198 | -0.0073 | 0.0591 | -0.0428 | 0.032 | 0.0435 | 0.106 | 0.0053 | 0.0386 |
| COc1nnc2ccc(N3CCC(c4ccc(OCCN5CCN(C)C(=O)[C@H]5C)cc4)CC3)nn12 [AZD5153] + C=CCn1c(=O)c2cnc(Nc3ccc(N4CCN(C)CC4)cc3)nc2n1-c1cccc(C(C)(C)O)n1 [AZD1775] (first compound max 1 µM, partner max 1 µM) | -0.101 | -0.0212 | -0.0642 | -0.048 | -0.0063 | 0.0179 | -0.0136 | 0.0394 | 0.0244 | -0.0227 | -0.0229 | -0.0354 | -0.0546 | -0.0212 | -0.0724 | -0.0873 | -0.0371 | 0.0333 | -0.0618 | -0.0104 |
| COc1nnc2ccc(N3CCC(c4ccc(OCCN5CCN(C)C(=O)[C@H]5C)cc4)CC3)nn12 [AZD5153] + CC1(C)CCC(CN2CCN(c3ccc(C(=O)NS(=O)(=O)c4ccc(NCC5CCOCC5)c([N+](=O)[O-])c4)c(Oc4cnc5[nH]ccc5c4)c3)CC2)=C(c2ccc(Cl)cc2)C1 [Venetoclax] (first compound max 1 µM, 7x7, partner max 1 µM) | -0.058 | 0.0135 | -0.0458 | -0.0604 | -0.0006 | -0.0143 | -0.0592 | -0.0488 | -0.0832 | 0.0237 | -0.0432 | -0.0537 | -0.101 | -0.057 | -0.0234 | -0.0523 | -0.0381 | -0.0824 | -0.125 | -0.0644 |
| COc1nnc2ccc(N3CCC(c4ccc(OCCN5CCN(C)C(=O)[C@H]5C)cc4)CC3)nn12 [AZD5153] + CCN(CCO)CCCOc1ccc2c(Nc3cc(CC(=O)Nc4cccc(F)c4)[nH]n3)ncnc2c1 [AZD2811] (first compound max 1 µM, 7x7, partner max 1 µM) | -0.0452 | -0.031 | 0.0303 | -0.0313 | -0.0092 | 0.0052 | -0.0388 | 0.0216 | -0.0248 | 0.0771 | -0.0155 | 0.0096 | -0.0259 | -0.0295 | -0.0364 | 0.0024 | -0.0382 | -0.0185 | -0.0626 | -0.0644 |
| COc1nnc2ccc(N3CCC(c4ccc(OCCN5CCN(C)C(=O)[C@H]5C)cc4)CC3)nn12 [AZD5153] + C[C@@H]1COCCN1C2=NC(=NC(=C2)C3(CC3)[S@](=N)(=O)C)C4=C5C=CNC5=NC=C4 [AZD6738] (first compound max 1 µM, 7x7, partner max 10 µM) | -0.074 | -0.0209 | 0.0365 | -0.0709 | -0.0092 | 0.0222 | 0.0327 | 0.0637 | 0.0692 | 0.0096 | 0.081 | -0.0072 | -0.0453 | 0.0552 | -0.0066 | 0.0228 | -0.018 | 0.0234 | -0.0811 | 0.0769 |
| COc1nnc2ccc(N3CCC(c4ccc(OCCN5CCN(C)C(=O)[C@H]5C)cc4)CC3)nn12 [AZD5153] + Cc1c2c(nn1C)CSCc1cc(n(C)n1)CSc1cc(c3ccccc3c1)OCCCc1c(C(=O)O)n(C)c3c-2c(Cl)ccc13 [AZD5991] (first compound max 1 µM, 7x7, partner max 1 µM) | -0.0631 | 0.0279 | 0.0407 | -0.0202 | -0.0134 | -0.0108 | -0.0727 | -0.0094 | -0.0217 | -0.0164 | -0.0271 | 0.0346 | -0.007 | -0.0215 | -0.041 | 0.0194 | -0.0459 | -0.0461 | -0.115 | 0.0362 |
| C[C@@H](Oc1cc(-c2cnn(C3CCNCC3)c2)cnc1N)c1c(Cl)ccc(F)c1Cl [Crizotinib] + Cn1cnc2c(F)c(Nc3ccc(Br)cc3Cl)c(C(=O)NOCCO)cc21 [Selumetinib] (first compound max 10 µM, 7x7, partner max 10 µM) | -0.0443 | -0.0606 | – | -0.045 | -0.0146 | -0.0088 | -0.0266 | – | -0.0007 | – | 0.0062 | -0.0633 | 0.0316 | 0.0035 | – | – | -0.042 | – | -0.0653 | – |
| CS(=O)(=O)CCNCc1ccc(-c2ccc3ncnc(Nc4ccc(OCc5cccc(F)c5)c(Cl)c4)c3c2)o1 [Lapatinib] + Cn1cnc2c(F)c(Nc3ccc(Br)cc3Cl)c(C(=O)NOCCO)cc21 [Selumetinib] (first compound max 10 µM, 7x7, partner max 10 µM) | 0.0681 | -0.031 | – | 0.0547 | 0.0224 | 0.0172 | -0.0067 | – | -0.0391 | – | -0.0531 | 0.0764 | -0.0027 | -0.0348 | – | – | 0.0708 | – | -0.0013 | – |
| CS(=O)(=O)CCNCc1ccc(-c2ccc3ncnc(Nc4ccc(OCc5cccc(F)c5)c(Cl)c4)c3c2)o1 [Lapatinib] + NC1(c2ccc(-c3nc4ccn5c(=O)[nH]nc5c4cc3-c3ccccc3)cc2)CCC1 [MK-2206] (first compound max 10 µM, 7x7, partner max 10 µM) | 0.0833 | 0.0064 | – | 0.0584 | 0.014 | 0.0601 | 0.0484 | – | 0.0246 | – | -0.0246 | 0.0505 | 0.026 | -0.0031 | – | – | 0.0408 | 0.0376 | 0.0357 | – |
| O=C(c1cc(Cc2n[nH]c(=O)c3ccccc23)ccc1F)N1CCN(C(=O)C2CC2)CC1 [Olaparib] + CC1(C)CCC(CN2CCN(c3ccc(C(=O)NS(=O)(=O)c4ccc(NCC5CCOCC5)c([N+](=O)[O-])c4)c(Oc4cnc5[nH]ccc5c4)c3)CC2)=C(c2ccc(Cl)cc2)C1 [Venetoclax] (first compound max 10 µM, 7x7, partner max 1 µM) | -0.0111 | -0.0163 | – | 0.0012 | -0.0328 | -0.01 | -0.0547 | – | -0.0292 | – | -0.0323 | 0.0277 | 0.0557 | -0.0248 | – | – | -0.0346 | – | -0.0096 | – |
| O=C(c1cc(Cc2n[nH]c(=O)c3ccccc23)ccc1F)N1CCN(C(=O)C2CC2)CC1 [Olaparib] + CN(CC[C@H](CSC1=CC=CC=C1)NC2=C(C=C(C=C2)S(=O)(=O)NC(=O)C3=CC=C(C=C3)N4CCC(CC4)[C@H](C5=CC=CC=C5C6=CC=C(C=C6)Cl)O)S(=O)(=O)C(F)(F)F)CCO [AZD4320] (first compound max 10 µM, 7x7, partner max 1 µM) | 0.0073 | 0.0077 | – | 0.061 | -0.049 | -0.0086 | 0.0025 | – | -0.041 | – | -0.0603 | 0.0031 | 0.0718 | -0.0091 | – | – | -0.0436 | – | -0.043 | – |
| O=C(c1cc(Cc2n[nH]c(=O)c3ccccc23)ccc1F)N1CCN(C(=O)C2CC2)CC1 [Olaparib] + COc1nnc2ccc(N3CCC(c4ccc(OCCN5CCN(C)C(=O)[C@H]5C)cc4)CC3)nn12 [AZD5153] (first compound max 10 µM, 7x7, partner max 1 µM) | -0.0601 | -0.0277 | – | -0.0048 | -0.0689 | -0.022 | -0.0248 | – | -0.0624 | – | -0.044 | 0.0665 | 0.0357 | -0.0229 | – | – | -0.0631 | – | -0.0422 | – |
| CCc1c2c(nc3ccc(O)cc13)-c1cc3c(c(=O)n1C2)COC(=O)[C@]3(O)CC [SN-38] + O=C(c1cc(Cc2n[nH]c(=O)c3ccccc23)ccc1F)N1CCN(C(=O)C2CC2)CC1 [Olaparib] (first compound max 0.3 µM, 7x7, partner max 10 µM) | 0.0557 | 0.0767 | 0.122 | 0.0369 | -0.022 | 0.0243 | 0.0875 | – | 0.0986 | – | 0.14 | 0.0478 | 0.0309 | 0.0588 | – | 0.0064 | 0.0497 | 0.025 | 0.017 | 0.0669 |
| Cc1nc(-c2cn3c(n2)-c2ccc(-c4cnn(C(C)(C)C(N)=O)c4)cc2OCC3)n(C(C)C)n1 [Taselisib] + O=C(Nc1ccc2[nH]nc(-c3ccncc3)c2c1)[C@@H]1CCN(CC(=O)N2CCN(c3ccc(-c4ncccn4)cc3)CC2)C1 [SCH772984] (first compound max 10 µM, 7x7, partner max 5 µM) | 0.0102 | 0.0802 | – | 0.139 | 0.052 | 0.0352 | -0.0131 | – | -0.0437 | – | 0.0964 | 0.0385 | 0.176 | 0.133 | – | – | 0.0108 | – | 0.0323 | – |
| CC1(C)CCC(CN2CCN(c3ccc(C(=O)NS(=O)(=O)c4ccc(NCC5CCOCC5)c([N+](=O)[O-])c4)c(Oc4cnc5[nH]ccc5c4)c3)CC2)=C(c2ccc(Cl)cc2)C1 [Venetoclax] + CS(=O)(=O)CCNCc1ccc(-c2ccc3ncnc(Nc4ccc(OCc5cccc(F)c5)c(Cl)c4)c3c2)o1 [Lapatinib] (first compound max 1 µM, 7x7, partner max 10 µM) | 0.0659 | -0.0163 | – | 0.022 | -0.0535 | 0.0073 | -0.0655 | – | -0.06 | – | -0.0358 | -0.0243 | -0.0033 | -0.0207 | – | – | -0.0116 | – | -0.0206 | – |
